Measurements taken from PMC11040670, “Mechanistic and Kinetic Insights into Cellular Uptake of Biomimetic Dinitrosyl Iron Complexes and Intracellular Delivery of NO for Activation of Cytoprotective HO-1” (JACS Au, 2024).

Legend:
Format in all cases: cell-based, human
HO-1 protein = assay: ELISA of intracellular HO-1 protein in MSC
Protocol: After the treatments of DNIC–COOH/DNIC–COOMe to the MSC cells following the procedure described above, the intracellular level of HO-1 protein in DNIC-treated MSC cells was also determined by ELISA (Abcam, Cambridge, MA) according to the manufacturers’ protocols.

MSC [1] = assay: Intracellular release of NO (DAF-FM fluorescence) in MSC; conditions: 100 μM DNIC–COOH or 2.5 μM DNIC–COOMe
Protocol: (§1) Intracellular release of NO by DNIC–COOH was validated using the fluorescence probe 4-amino-5-methylamino-2′,7′-difluorofluorescein diacetate (DAF-FM) in combination with fluorescence analysis techniques. Briefly, the MSC cells (or N2a and HCEC cells) were seeded onto a 96-well black plate at a density of 6 × 10^3 cells/well (or 1 × 10^4 cells/well for N2a and 8 × 10^3 cells/well for HCEC cells) and incubated at 37 °C overnight. On the next day, the MSC cells were first treated with 10 μM of DAF-FM (or 5 μM for N2a and HCEC cells) and incubated at 37 °C for 0.5 h. […] Fluorescence intensity of the cells was then recorded using a microplate reader (SpectraMax iD3, Molecular Devices, San Jose, CA) with an excitation wavelength at 485 nm and an emission wavelength at 525 nm. Three independent experiments were executed to measure the time-dependent change of average fluorescence intensity. Time-dependent change of average fluorescence intensity for the MSC/N2a/HCEC cells with sequential treatment of DAF-FM (10 μM for MSC cells, 5 μM for N2a cells, 5 μM for HCEC cells; 0.5 h) and DNIC–COOMe (2.5 μM for MSC cells, 10 μM for N2a cells, 1 μM for HCEC cells) was determined in a similar manner. […]

HCEC = assay: Intracellular release of NO (DAF-FM fluorescence) in HCEC; conditions: 75 μM DNIC–COOH or 1 μM DNIC–COOMe
Protocol: as §1

MSC [2] = assay: Cytoprotection of MSC against H2O2 oxidative stress (CCK-8, live/dead); conditions: MSC pretreated 8 h (100 μM DNIC–COOH or 2.5 μM DNIC–COOMe), then 250 μM H2O2 24 h
Protocol: Cell viability study of MSC, N2a, and HCEC cells with or without the treatment of DNIC–COOH was performed using a Cell Counting Kit-8 (IMT Formosa New Materials Co., Ltd., Taiwan) according to the manufacturer’s protocol. Briefly, cells were seeded into a 96-well plate at a density of 4 × 10^3 cells/well for MSC, 1 × 10^4 cells/well for N2a, and 8 × 10^3 cells/well for HCEC, respectively, and incubated overnight. On the next day, cells were treated with DNIC–COOH at different concentrations and incubated for 24 h. The culture medium was then removed before the cells were washed with DPBS. After addition of fresh medium containing CCK-8 solution to the cells and incubation for 1–3 h, the absorbance at 450 nm was then measured on a microplate reader (SpectraMax iD3, Molecular Devices, San Jose, CA) with a reference wavelength of 650 nm. […]
To investigate the capacity of DNIC preconditioning to protect the MSC cells against elevated oxidative stress, cells were pretreated with 2.5 μM of DNIC–COOMe or 100 μM of DNIC–COOH for 8 h before being incubated with 250 μM H2O2 for another 24 h. Cell viability was evaluated by live/dead staining or CCK-8 assay. In a similar manner, DNIC-induced cytoprotective effect in HCECs was evaluated through pretreatment of 1 μM of DNIC–COOMe or 75 μM of DNIC–COOH for 24 h.

SMILES	expression of HO-1 protein (HO-1 protein; at 6 h, 2.5 μM DNIC–COOMe) [fold]	tmax for intracellular release of NO (MSC [1]) [h]	tmax for intracellular release of NO (HCEC) [h]	survival rate (MSC [2]) [%]	expression of HO-1 protein (HO-1 protein; at 8 h, 100 μM DNIC–COOH) [fold]
COC(=O)CC[SH]1[Fe]([N]=O)([N]=O)[SH](CCC(=O)OC)[Fe]1([N]=O)[N]=O (centres unmarked) [DNIC–COOMe, [(NO)2Fe(μ-SCH2CH2COOCH3)2Fe(NO)2]]	8.1 ± 0.9	1	1	35.8	–
O=[N][Fe]1([N]=O)[SH](CCC(=O)O)[Fe]([N]=O)([N]=O)[SH]1CCC(=O)O (centres unmarked) [DNIC–COOH, [(NO)2Fe(μ-SCH2CH2COOH)2Fe(NO)2]]	–	4	6	58.7	32.0 ± 4.4
